Results taken from US6881584B1, “Infrared thermography” (SmithKline Beecham Corporation, priority 1998, dated 2005).

Key:
tissue vascularization = conditions: nude mice, vs control injection
Method: Nude mice were injected with either VEGF peptide or a control followed by themographic imaging of both injection sites.

HUVEC cells = conditions: 10 minutes
Method: (§1) Heat generation was measured using a Stirling cooled Agema Thermovision 900 Infrared System AB (Marietta, Ga.) equipped with a SW Scanner and 40°×25° lens which detects a 2-5.4 micron spectral response. […] The focal distance was 6 cm. Images were captured using a recurs function set at 16 or an averaging function set at 32. The data was analyzed using OS-9 advanced systems and ERIKA 2.00 software according to the manufacturer's specifications (FLIR Infrared Systems AB, Danderyd, Sweden). Thermography of adipocytes was performed by maintaining the ambient temperature of the cultured cells at 37±0.02° C. using a Queue Systems Inc. (Parkersburg, W.Va.) incubator, model QWJ500SABA. Spectral analysis of yeast was performed at 30±0.02° C. using the same incubator system. After treating the cells with experimental agents (e.g., rotenone etc.), the temperature was equilibrated for 10 minutes in the incubator before measuring real time thermogenesis for all microtiter plate applications. Various color scales in the visible wavelength were used to depict the temperature fluctuations of the recorded images. Although temperature scales are constant, the color scale images are variable and can be adjusted with level and span controls.

genitalia = assay: Thermogenesis in rat genitalia (male erectile dysfunction); type: in vivo; conditions: rats, 2 hours after PO dosing, 3.0 or 0.3 mg/kg
Method: (§2) Male AKR/J, C57BL/6J, and SWR/J mice were purchased from 4-8 weeks of age from Jackson Laboratories (Bar Harbor, Me.). Mice were fed high and low fats diets containing high sucrose as defined by Surwit et al., (Metabolism 44(5):645-651 (1995)). After 14 weeks on these diets, the intrascapular fur was shaved, the animals were dosed (intraperitineal) with 1 mg/kg of BRL37344, and the animals were anesthetized with isofluorane. Nude mice (BALB/C) were 6-8 weeks old and were dosed with inhalant two times before thermal profiling. The Lewis rat strain (200-250 g) were used for both the MED and inflammation experiments. Infrared thermographic images and temperature calculations were recorded using an Agema Thermovision 900 Infrared System.
Male erectile dysfunction (MED) is treatable with drugs that increase blood flow to the genitalia. Increased local thermogenesis is associated with increased local blood flow. One drug that acts in this manner and treats MED is Pinacidil. […] Thus, infrared thermography provides a quantitative and non-invasive method for identifying and evaluating drug candidates for the MED indication as well as identifying candidates that can cause erection as a side effect.

UCP2 = assay: Infrared thermography of yeast expressing UCP2; type: cell-based; conditions: galactose-induced UCP2
Method: Human skeletal muscle cDNA (#7175-1) was purchased from Clontech (Palo Alto, Calif.). UCP2 specific-sequences were PCR amplified from the sample using oligonucleotide primers that matched the 5′ and 3′ ends of a published sequence (GenBank U82819). Vent polymerase was used (New England Biolabs, Beverly, Mass.) in a standard reaction mixture with 2 mM MgSO4 and 5% DMSO. The cycle parameters were 94° C. for 1 min., 55° C. for 1 min., and 72° C. for 1 min., repeated 29 times. The sample was passed over an S-400 spin column (Pharmacia, Piscataway, N.J.) prior to ligation in a vector for transformation of E. coli. The authenticity of the clone was confirmed by DNA sequence analysis. For the experiments in yeast, the UCP2 coding sequence was amplified by PCR using primers with the sequence […] AAGGCCA (SEQ ID NO:1) (sense) and […] (SEQ ID NO:2) (antisense) followed by a second PCR using primers with the sequence […] (SEQ ID NO:3) (sense) and […] (SEQ ID NO:4) (antisense). The PCR product was cloned into pYX233 (R&D Systems) by homologous recombination in yeast strain W303 (a/a homozygous for ade2-1, his3-1, 15 leu2-3, 112, trp1-1, ura3-1). Yeast transformants were selected on BSM-trp agar (Bio 101, Vista, Calif.). The correct UCP2 sequence was verified by sequencing plasmids back-extracted from yeast to E. coli. […]

C3H10T1/2 adipocytes [1] = assay: Infrared thermography of thermogenesis in cultured adipocytes (β-AR-agonists); type: cell-based; conditions: for EC50: Mus musculus
Method: (§3) Human subcutaneous adipocytes were purchased from Zen-Bio, Inc. (Research Triangle Park, N.C.). C3H10T1/2 clone 8 fibroblasts were differentiated into adipocytes as previously described (Lenhard et al, Biochem. Pharmacol. 54:801-808 (1997), Paulik and Lenhard, Cell Tissue Res. 290:79-87 (1997)). After 7 days in culture, triglyceride accumulation was determined by adding lipoprotein lipase and GPO-Trinder reagent (assay kit 337-B, Sigma Diagnostics, St. Louis, Mo.) to the cells (50 μl/cm^2) and incubating the lysates at 37° C. for 2 hours. The optical density was measured using a spectrophotometer set at a wavelength of 540 nm. Lipolysis was measured as previously described (Lenhard et al, Biochem. Pharmacol. 54:801-808 (1997)).
as §1
The β3-AR-agonists are candidate therapeutic agents for the treatment of diabetes and obesity. Although, the mechanism of action for these agents is thought to involve increased metabolic rate (Scarpace, Ann. N.Y. Acad. Sci. 813:111-116 (1997)), it has yet to be shown that β-AR-agonists increase heat output by adipocytes. Therefore, it was determined whether infrared imaging could be used to monitor the effects of β-AR-agonists on thermogenesis in cultured adipocytes.
(§4) As a control, the effects of β-AR-agonists on lipolysis was also measured. […] In general, this expands to measuring thermogenic activity of both catabolic and anabolic mediated-effects of potential drug candidates.

human adipocytes = assay: Infrared thermography of human adipocytes in 96-well plates; type: cell-based; conditions: dose response, relative to untreated cells
Method: Heat generation was measured using a Stirling cooled Agema Thermovision 900 Infrared System AB (Marietta, Ga.) equipped with a SW Scanner and 40°×25° lens which detects a 2-5.4 micron spectral response. […] The focal distance was 6 cm. Images were captured using a recurs function set at 16 or an averaging function set at 32. The data was analyzed using OS-9 advanced systems and ERIKA 2.00 software according to the manufacturer's specifications (FLIR Infrared Systems AB, Danderyd, Sweden). Thermography of adipocytes was performed by maintaining the ambient temperature of the cultured cells at 37±0.02° C. using a Queue Systems Inc. (Parkersburg, W.Va.) incubator, model QWJ500SABA. […] After treating the cells with experimental agents (e.g., rotenone etc.), the temperature was equilibrated for 10 minutes in the incubator before measuring real time thermogenesis for all microtiter plate applications. Various color scales in the visible wavelength were used to depict the temperature fluctuations of the recorded images. Although temperature scales are constant, the color scale images are variable and can be adjusted with level and span controls.

yeast = type: cell-based; conditions: dose response, relative to untreated cells
Method: Heat generation was measured using a Stirling cooled Agema Thermovision 900 Infrared System AB (Marietta, Ga.) equipped with a SW Scanner and 40°×25° lens which detects a 2-5.4 micron spectral response. […] The focal distance was 6 cm. Images were captured using a recurs function set at 16 or an averaging function set at 32. The data was analyzed using OS-9 advanced systems and ERIKA 2.00 software according to the manufacturer's specifications (FLIR Infrared Systems AB, Danderyd, Sweden). […] Spectral analysis of yeast was performed at 30±0.02° C. using the same incubator system. After treating the cells with experimental agents (e.g., rotenone etc.), the temperature was equilibrated for 10 minutes in the incubator before measuring real time thermogenesis for all microtiter plate applications. Various color scales in the visible wavelength were used to depict the temperature fluctuations of the recorded images. Although temperature scales are constant, the color scale images are variable and can be adjusted with level and span controls.

C3H10T1/2 adipocytes [2] = assay: Lipolysis in adipocytes treated with β-AR-agonists; type: cell-based; conditions: Mus musculus, C3H 10T1/2, read-out: EC50 (nM) Lipolysis
Method: as §3, §4

[3] = molecular target: T1, beta 3 adrenergic receptor (β3AR) (Homo sapiens, UniProt P13945); assay: Infrared thermography of CHO cells overexpressing the β3AR receptor; type: cell-based
T1 construct: expressed in transfected cells; host or cells: Chinese Hamster Ovary (CHO) cells
Method: as §1

C3H10T1/2 cells = assay: Infrared thermography of heat production in differentiating C3H10T1/2 cells (PPARγ agonists); type: cell-based; conditions: in the presence of insulin and 9-cis retinoic acid (FIG. 7), read-out: EC50(μM), thermogenesis and lipogenesis assays
Method: as §3
Heat generation was measured using a Stirling cooled Agema Thermovision 900 Infrared System AB (Marietta, Ga.) equipped with a SW Scanner and 40°×25° lens which detects a 2-5.4 micron spectral response. […] The focal distance was 6 cm. Images were captured using a recurs function set at 16 or an averaging function set at 32. The data was analyzed using OS-9 advanced systems and ERIKA 2.00 software according to the manufacturer's specifications (FLIR Infrared Systems AB, Danderyd, Sweden). […] Various color scales in the visible wavelength were used to depict the temperature fluctuations of the recorded images. […]

[4] = tested on: intrascapular brown adipose tissue (IBAT); assay: IBAT thermogenesis in ob/ob mice treated with PPARγ agonist; type: in vivo; conditions: two weeks treatment, compared to control animals
Method: as §1

thoracic area = assay: Infrared thermography of thoracic area of nude mice treated with inhalant; type: in vivo; conditions: vs vehicle
Method: as §2
Furthermore, the bioavailability and bioactivity of inhalants in animals and man is often difficult to measure and quantitate. Assays available for measuring bioavailabilty of inhalants involve measuring the uptake of radiolabeled inhalant in selected tissues (eg. lung). Infrared thermography provides a non-invasive method for measuring the bioavailibilty/bioactivity of inhalant compounds. Thus, infrared thermography was used to measure the thermal activity induced by an inhalant in the thoracic area of nude mice.

hair-loss = assay: Chemotherapy-induced hair-loss by infrared thermography in newborn pups treated in utero; type: in vivo, rat; conditions: 6 mg/kg
From the text: Hair loss can result from undesirable side-effects of various therapies (e.g., radiation treatment of cancer patients, surgery etc.) and can occur naturally with age, whereas surgical or pharmacological intervention can restore hair growth. Since hair provides insulation against heat loss and aids in the maintenance of a constant body temperature, it was of interest to determine if infrared thermography can be used to measure hair loss. The lack of progress in the treatment and prevention of chemotherapy-induced alopecia is in part due to the lack of a reproducible animal model as well as a quantitative method to measure hair-loss. To determine if infrared imaging can be used to quantitatively measure chemotherapy induced hair-loss, newborn rat pups that were treated in utero with the known cancer agent, etoposide, were thermally profiled for hair-loss.

liver = type: in vivo; conditions: ob/ob mice, 0.1-1 mg/kg i.p., 90 minutes, dose-dependent
Method: FIG. 29. Liver thermogenesis in ob/ob mice 90 minutes after treatment with lipopolysaccharide (LPS) detected by IR thermography. Male ob/ob mice were housed and maintained as described in FIG. 1. Mice were dosed at 0.0, 0.1, 0.3, or 1 mg/kg LPS in water vehicle (0.5 mL i.p.; n=10 per dose) and anesthetized using isoflurane as described above 90 minutes after treatment. The abdomens of the anesthetized mice were surgically opened to expose the liver and Bioclusive adhesive was placed over the entire exposed area. IR images of the liver region were acquired and analyzed as detailed in FIG. 28. […] Quantification of the IR signal in the liver region is shown in the bottom panel. Data are means±SEM for n=10 animals per group. Asterisks (*) denote statistical differences from control (p<0.05, ANOVA with Student-Newman-Keuls post hoc tests).
Use of IR transparent adhesive to image liver thermogenesis in vivo. […] Indeed, temperature measurements obtained by IR thermography correlated well with liver toxicity measured as AST release (r=0.99). In addition, temperature changes measured using IR thermography correlated with alanine aminotransferase (ALT) release, another marker of liver injury (r=0.76, data not shown).

T1 sequence (P13945 whole entry): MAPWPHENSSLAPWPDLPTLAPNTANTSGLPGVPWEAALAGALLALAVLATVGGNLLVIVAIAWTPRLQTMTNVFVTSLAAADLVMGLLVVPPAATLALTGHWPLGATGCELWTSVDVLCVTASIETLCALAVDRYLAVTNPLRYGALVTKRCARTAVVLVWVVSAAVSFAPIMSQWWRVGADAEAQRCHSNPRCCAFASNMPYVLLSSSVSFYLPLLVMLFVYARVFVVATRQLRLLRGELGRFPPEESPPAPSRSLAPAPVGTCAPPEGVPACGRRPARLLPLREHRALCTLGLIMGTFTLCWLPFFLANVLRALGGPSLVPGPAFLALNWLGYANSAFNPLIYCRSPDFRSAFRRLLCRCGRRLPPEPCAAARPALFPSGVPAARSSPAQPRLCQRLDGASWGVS

Question: Which “thermogenesis in local area of injection” value (tissue vascularization) does the source give for VEGF here?
Answer: enhanced thermogenesis

Question: And the “thermogenesis in HUVEC cells” value (HUVEC cells)?
Answer: induced thermogenesis

Question: With `CC(N/C(=N\C#N)Nc1ccncc1)C(C)(C)C` (centres unmarked) [Pinacidil] as the molecule, how does the “thermogenesis in the genitalia” value (genitalia) read?
Answer: increase in thermogenesis

Question: What does the source list for `C=C(C)[C@H]1Cc2c(ccc3c2O[C@@H]2COc4cc(OC)c(OC)cc4[C@@H]2C3=O)O1` [Rotenone]?
Answer: UCP2-mediated thermogenesis (UCP2): inhibited; EC50 (C3H10T1/2 adipocytes [1]; C3H 10T1/2, read-out: EC50 (nM) Thermogenesis): 8.5 nM; thermogenesis of cells treated with β-AR-agonists (C3H10T1/2 adipocytes [1]; cells treated with 50 nM of the various β-AR-agonists): inhibited thermogenesis; thermogenesis in human adipocytes (human adipocytes): inhibited thermogenesis; thermogenesis in yeast (yeast): inhibited thermogenesis

Question: `CC(C)NCC(O)c1ccc(O)c(O)c1` (centres unmarked) [Isoproterenol] was tested. Which EC50 (C3H10T1/2 adipocytes [2]) did it give?
Answer: 27.1 nM

Question: And the “thermogenic response of CHO cells” value [3]?
Answer: responsive in a dose-dependent manner

Question: And the stimulation of thermogenesis (C3H10T1/2 adipocytes [1]; C3H10T1/2 adipocytes)?
Answer: stimulated

Question: And the EC50 (C3H10T1/2 adipocytes [1]; C3H 10T1/2, adipocytes, infrared thermography, dose response, read-out: EC50 (nM) Thermogenesis)?
Answer: 28 nM

Question: What does the source list for `CN(CCOc1ccc(C[C@H](Nc2ccccc2C(=O)c2ccccc2)C(=O)O)cc1)c1ccccn1` [GW1929]?
Answer: EC50 (C3H10T1/2 cells): 0.052 µM; IBAT thermogenesis [4]: reduction in IBAT thermogenesis

Question: `CC(C)(C)NCC(O)c1ccc(O)c(CO)c1` (centres unmarked) [Albuterol] was tested. Which torso area temperature (thoracic area) did it give?
Answer: torso temperature increases after 2.5 minutes

Question: `COc1cc([C@@H]2c3cc4c(cc3[C@@H](O[C@@H]3O[C@@H]5CO[C@@H](C)O[C@H]5[C@H](O)[C@H]3O)[C@H]3COC(=O)[C@H]23)OCO4)cc(OC)c1O` [etoposide] was tested. Which “thermal activity as a result of hair-loss” value (hair-loss) did it give?
Answer: increased thermal activity in both the fronts and backs as a result of hair-loss

Question: How did the liver thermogenesis (liver) turn out when lipopolysaccharide [LPS] was run?
Answer: thermogenesis is increased
